Reference: patent US20090203738A1, “Pharmaceutical Composition for Treating Bulimia and Depression Arising from Bulimia” (priority 2005, published 2009)
Counter-ions that a name gives are not always drawn. Like-named read-outs stand apart in the source and are kept apart here.

What was measured:
[1] = test system: patients suffering from light to medium Alzheimer's disease; settings: 24-week, double-blind, placebo-controlled trial; cited from earlier work
[2] = test system: patient with excessive eating and vomiting (bulimia) and depressive state; settings: patient history: drug therapy and spiritual therapy at three neurological hospitals before the first examination; cited from earlier work
bulimia = settings: cited from earlier work
[3] = test system: patient with excessive eating and vomiting (bulimia), insensitive to 60 mg of fluoxetine
Text: An excessive eating started when they were the third year class ([…]) of high school and it is still continuing. At the first medical examination, they were unable to go to university.

Compound: COc1cc2c(cc1OC)C(=O)C(CC1CCN(Cc3ccccc3)CC1)C2 (stereo not shown) [donepezil hydrochloride, 1-benzyl-4-[(5,6-dimethoxy-1-indanon)-2-yl]methylpiperidine]
- cognitive ability and general function [1]: improves the cognitive ability and general function

Compound: COCCCC/C(=N\OCCN)c1ccc(C(F)(F)F)cc1 [fluvoxamine]
- improvement under earlier drug therapy [2]: no improvement was noted

Compound: CCCC(CCC)C(=O)[O-].[Na+] [sodium valproate]
- improvement under earlier drug therapy [2]: no improvement was noted

Compound: O=C1CN=C(c2ccccc2Cl)c2cc([N+](=O)[O-])ccc2N1 [Rivotril]
- improvement under earlier drug therapy [2]: no improvement was noted

Compound: CN1C(=O)CN=C(c2ccccc2)c2cc(Cl)ccc21 [diazepam]
- improvement under earlier drug therapy [2]: no improvement was noted

Compound: Fc1ccc([C@@H]2CCNC[C@H]2COc2ccc3c(c2)OCO3)cc1 [Paxil]
- improvement under earlier drug therapy [2]: no improvement was noted

Compound: Cc1nc2n(c(=O)c1CCN1CCC(c3noc4cc(F)ccc34)CC1)CCCC2 [Risperdal]
- improvement under earlier drug therapy [2]: no improvement was noted

Compound: CNCCC(Oc1ccc(C(F)(F)F)cc1)c1ccccc1 (stereo not shown) [fluoxetine]
- rate of improvement (bulimia; bulimia, 60 mg per day): about 60%
- improvement in excessive eating ([3]; 20 mg of fluoxetine for two weeks): no improvement in excessive eating was noted
- improvement in excessive eating ([3]; fluoxetine increased to 40 mg): no improvement was noted yet
- amount and frequency of excessive eating ([3]; fluoxetine increased up to 60 mg, for two weeks): no decrease in amount and frequency of excessive eating were noted
- depression ([3]; fluoxetine up to 60 mg, six weeks from the initiation of the therapy): No change in depression was noted

Compound: OC1(c2ccc(Cl)cc2)c2ccccc2C2=NCCN21 (stereo not shown) [mazindol]
- side effects (bulimia; applied for bulimia): excitation, frustration, load on cardiovascular system, dysuria and others
